Measured values reported in US8916549B2, “Thienooxazepine derivative” (Takeda Pharmaceutical Company Limited, priority 2009, dated 2014).
Where a name gives a salt, the structure may show the parent alone.

The compounds below were run against serotonin 5-HT2C receptor (isoform type VSV, stably expressing CHO cell) (Homo sapiens, UniProt P28335, I156V/I160V/N158S) (assay: cell-based). Conditions: read-out: ratio to maximum response by 5-HT (1 μM).
serotonin 5-HT2C receptor (isoform type VSV, stably expressing CHO cell), sequence (P28335 33-458 I156V/N158S/I160V limits assumed): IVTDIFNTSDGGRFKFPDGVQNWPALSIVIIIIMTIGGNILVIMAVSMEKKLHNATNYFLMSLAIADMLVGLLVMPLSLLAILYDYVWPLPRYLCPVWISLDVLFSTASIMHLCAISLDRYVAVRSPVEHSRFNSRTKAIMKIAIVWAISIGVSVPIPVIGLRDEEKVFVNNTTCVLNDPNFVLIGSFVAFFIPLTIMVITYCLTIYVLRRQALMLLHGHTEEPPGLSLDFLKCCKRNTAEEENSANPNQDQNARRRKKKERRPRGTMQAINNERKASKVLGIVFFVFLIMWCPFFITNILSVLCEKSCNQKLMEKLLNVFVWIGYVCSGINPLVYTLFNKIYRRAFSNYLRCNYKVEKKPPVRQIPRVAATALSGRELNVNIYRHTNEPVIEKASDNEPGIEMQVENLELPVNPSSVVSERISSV

Row | Compound | Emax [%]
1 | C[C@H]1CNCc2scc(-c3cccc(F)c3)c2O1 [Example 12, (2S)-8-(3-fluorophenyl)-2-methyl-2,3,4,5-tetrahydrothieno[2,3-f][1,4]oxazepine 1 hydrochloride] | 101
2 | Cc1sc2c(c1C1CC1)OCCNC2 [Example 17, 8-cyclopropyl-7-methyl-2,3,4,5-tetrahydrothieno[2,3-f][1,4]oxazepine 1 hydrochloride] | 91
3 | CC(C)c1csc2c1O[C@@H](C)CNC2 [Example 15, (2S)-2-methyl-8-(1-methylethyl)-2,3,4,5-tetrahydrothieno[2,3-f][1,4]oxazepine 1 hydrochloride] | 96
4 | c1sc2c(c1C1CC1)OCCNC2 [Example 3, 8-cyclopropyl-2,3,4,5-tetrahydrothieno[2,3-f][1,4]oxazepine 1 hydrochloride] | 98
5 | CC(c1csc2c1OCCNC2)C(F)(F)F (stereo not drawn) [Example 20, 8-(2,2,2-trifluoro-1-methylethyl)-2,3,4,5-tetrahydrothieno[2,3-f][1,4]oxazepine 1 hydrochloride] | 85
6 | C[C@H]1CNCc2scc(C3CC3)c2O1 [Example 14, (2S)-8-cyclopropyl-2-methyl-2,3,4,5-tetrahydrothieno[2,3-f][1,4]oxazepine 1 hydrochloride] | 100
7 | c1sc2c(c1C1CCC1)OCCNC2 [Example 5, 8-cyclobutyl-2,3,4,5-tetrahydrothieno[2,3-f][1,4]oxazepine 1 hydrochloride] | 107
8 | Fc1cccc(-c2csc3c2OCCNC3)c1 [Example 2, 8-(3-fluorophenyl)-2,3,4,5-tetrahydrothieno[2,3-f][1,4]oxazepine 1 hydrochloride] | 101
9 | CCCc1csc2c1O[C@@H](C)CNC2 [Example 16, (2S)-2-methyl-8-propyl-2,3,4,5-tetrahydrothieno[2,3-f][1,4]oxazepine 1 hydrochloride] | 97
10 | COc1cccc(-c2csc3c2OC(C)CNC3)c1 (stereo not drawn) [Example 6, 8-(3-methoxyphenyl)-2-methyl-2,3,4,5-tetrahydrothieno[2,3-f][1,4]oxazepine 1 hydrochloride] | 97
11 | CC(C)c1csc2c1OCCNC2 [Example 4, 8-(1-methylethyl)-2,3,4,5-tetrahydrothieno[2,3-f][1,4]oxazepine 1 hydrochloride] | 99
12 | CC(c1csc2c1O[C@@H](C)CNC2)C(F)(F)F (stereo partly drawn) [Example 21, (2S)-2-methyl-8-(2,2,2-trifluoro-1-methylethyl)-2,3,4,5-tetrahydrothieno[2,3-f][1,4]oxazepine 1 hydrochloride] | 94
